Reference: ChEMBL document CHEMBL1201862, “PubChem BioAssay data set” (2004)
Calls of active or inactive are those of the source.

target: Cytochrome P450 2C19 (Homo sapiens, UniProt P33261); assay: Cytochrome panel assay with activity outcomes. Panel member name: p450-cyp2c19 Compounds with AC50 equal or less than 10 uM are considered active; type: functional; settings: not given
Sequence (P33261 whole entry): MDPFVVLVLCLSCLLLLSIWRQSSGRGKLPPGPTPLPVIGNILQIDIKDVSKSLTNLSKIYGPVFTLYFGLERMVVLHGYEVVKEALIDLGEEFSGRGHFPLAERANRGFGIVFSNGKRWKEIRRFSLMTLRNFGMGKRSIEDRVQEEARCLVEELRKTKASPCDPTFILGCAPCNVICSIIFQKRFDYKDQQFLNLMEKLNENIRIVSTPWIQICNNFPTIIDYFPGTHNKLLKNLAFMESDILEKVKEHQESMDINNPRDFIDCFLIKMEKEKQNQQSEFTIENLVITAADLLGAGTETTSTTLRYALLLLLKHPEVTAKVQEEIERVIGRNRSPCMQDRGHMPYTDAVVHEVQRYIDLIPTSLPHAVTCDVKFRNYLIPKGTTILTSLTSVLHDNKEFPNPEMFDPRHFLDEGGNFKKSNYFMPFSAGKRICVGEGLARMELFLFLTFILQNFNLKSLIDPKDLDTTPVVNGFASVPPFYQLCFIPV

SMILES	AC50
NS(=O)(=O)c1ccc(CCNC(=O)C2CCCN2C(=O)OCc2ccccc2)cc1 (stereo unspecified)	inconclusive

same assay, conditions: read-out: AC50

SMILES	AC50
COc1ccc(-n2nc(C(=O)NCC(=O)Nc3ccccn3)c3ccccc3c2=O)cc1	3.16 µM (inconclusive)
CNCC/C=C\c1cccnc1	20 µM (inconclusive)
Cc1ccc(NC(=O)CCC(=O)NNC(=O)c2ccco2)cc1C	17.8 µM (inconclusive)
CC(=O)Nc1nonc1NC(=O)c1ccc(C(C)(C)C)cc1	3.55 µM (inconclusive)
O=c1[nH][nH]c(=S)c(=O)[nH]1	2 µM (inconclusive)

target: T1, Corticotropin-releasing factor receptor 2/Corticotropin-releasing factor-binding protein (Homo sapiens, UniProt P24387+Q13324); assay: Dose Response confirmation of uHTS hits for small molecule antagonists of the CRF-binding protein and CRF-R2 receptor complex.; type: functional; settings: read-out: IC50_Mean
T1 sequence (Q13324 whole entry): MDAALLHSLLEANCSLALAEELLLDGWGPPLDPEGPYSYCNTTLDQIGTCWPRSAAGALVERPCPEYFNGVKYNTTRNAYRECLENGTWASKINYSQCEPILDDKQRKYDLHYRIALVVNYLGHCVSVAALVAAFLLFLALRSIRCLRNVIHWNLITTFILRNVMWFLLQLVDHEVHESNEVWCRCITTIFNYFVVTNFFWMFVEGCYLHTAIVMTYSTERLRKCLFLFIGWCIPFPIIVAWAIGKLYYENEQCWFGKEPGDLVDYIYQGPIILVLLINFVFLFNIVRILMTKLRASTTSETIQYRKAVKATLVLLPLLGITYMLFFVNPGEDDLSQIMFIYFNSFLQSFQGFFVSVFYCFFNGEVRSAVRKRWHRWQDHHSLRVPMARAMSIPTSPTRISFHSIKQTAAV
T1 sequence (P24387 whole entry): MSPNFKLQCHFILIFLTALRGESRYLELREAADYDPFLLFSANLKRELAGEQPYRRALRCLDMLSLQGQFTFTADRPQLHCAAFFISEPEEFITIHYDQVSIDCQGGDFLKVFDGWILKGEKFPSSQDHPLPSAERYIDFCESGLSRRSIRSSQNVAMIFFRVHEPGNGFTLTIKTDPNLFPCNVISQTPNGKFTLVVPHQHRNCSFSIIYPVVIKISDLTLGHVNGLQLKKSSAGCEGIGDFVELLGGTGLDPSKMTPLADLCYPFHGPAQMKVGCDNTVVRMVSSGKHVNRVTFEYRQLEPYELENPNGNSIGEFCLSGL

SMILES	IC50
O=C(CSCC(=O)Nc1cccc([N+](=O)[O-])c1)Nc1ccccc1	> 47.1 µM (inactive)
CCOC(=O)c1c(CC(C)C)csc1N	> 47.1 µM (inactive)
COc1ccc(/C=C/c2c([N+](=O)[O-])c(=O)n(C)c(=O)n2C)cc1O	> 47.1 µM (inactive)
COC(=O)CCCC1=CC2=C(c3ccccc3)C(=O)C(C)(OC(=O)C3CCCC3)C(=O)C2=CN1CCc1ccccn1 (stereo unspecified)	> 47.1 µM (inactive)
C=CCOC(=O)C(C#N)c1nc2ccccc2nc1N1CCN(c2ccccc2OCC)CC1 (stereo unspecified)	> 47.1 µM (inactive)
CCN1C(c2ccccc2)C(C)C(=O)C(C)C1c1ccccc1 (stereo unspecified)	> 47.1 µM (inactive)
O=C(C1CC(=O)N(c2ccc(Br)cc2)C1)N1CCCC1 (stereo unspecified)	> 47.1 µM (inactive)
C=C(C)Cn1c(=O)c2c(nc3n2CC(C)CN3Cc2ccccc2)n(C)c1=O (stereo unspecified)	> 47.1 µM (inactive)
CCCCc1nc2ccccc2c(NC(=O)CN(CC)CC)c1CCC	> 47.1 µM (inactive)
Fc1ccccc1CNC(=S)Nc1ccc(Cl)cc1	5.53 µM (active)
CCCCCCCCCSc1nnc(N)[nH]1	> 47.1 µM (inactive)
O=C(OCc1cc(=O)n2ccsc2n1)C1(c2ccccc2)CC1	> 47.1 µM (inactive)

target: T1, Corticotropin-releasing factor receptor 2/Corticotropin-releasing factor-binding protein; assay: activators of CRF receptor 2 with binding protein – uHTS hits, confirmation (AID 602473); type: functional; settings: read-out: EC50_Mean

SMILES	EC50
O=C(CSCC(=O)Nc1cccc([N+](=O)[O-])c1)Nc1ccccc1	> 53 µM (inactive)
CCOC(=O)c1c(CC(C)C)csc1N	> 53 µM (inactive)
COc1ccc(/C=C/c2c([N+](=O)[O-])c(=O)n(C)c(=O)n2C)cc1O	> 53 µM (inactive)
COC(=O)CCCC1=CC2=C(c3ccccc3)C(=O)C(C)(OC(=O)C3CCCC3)C(=O)C2=CN1CCc1ccccn1 (stereo unspecified)	> 53 µM (inactive)
C=CCOC(=O)C(C#N)c1nc2ccccc2nc1N1CCN(c2ccccc2OCC)CC1 (stereo unspecified)	> 53 µM (inactive)
CCN1C(c2ccccc2)C(C)C(=O)C(C)C1c1ccccc1 (stereo unspecified)	> 53 µM (inactive)
O=C(C1CC(=O)N(c2ccc(Br)cc2)C1)N1CCCC1 (stereo unspecified)	> 53 µM (inactive)
C=C(C)Cn1c(=O)c2c(nc3n2CC(C)CN3Cc2ccccc2)n(C)c1=O (stereo unspecified)	> 53 µM (inactive)
CCCCc1nc2ccccc2c(NC(=O)CN(CC)CC)c1CCC	> 53 µM (inactive)
Fc1ccccc1CNC(=S)Nc1ccc(Cl)cc1	> 53 µM (inactive)
CCCCCCCCCSc1nnc(N)[nH]1	> 53 µM (inactive)
O=C(OCc1cc(=O)n2ccsc2n1)C1(c2ccccc2)CC1	> 53 µM (inactive)

target: Cytochrome P450 2D6 (Homo sapiens, UniProt P10635); settings: not given;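 further: CYP2D6 member of a cytochrome P450 panel assay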
Sequence (P10635 whole entry): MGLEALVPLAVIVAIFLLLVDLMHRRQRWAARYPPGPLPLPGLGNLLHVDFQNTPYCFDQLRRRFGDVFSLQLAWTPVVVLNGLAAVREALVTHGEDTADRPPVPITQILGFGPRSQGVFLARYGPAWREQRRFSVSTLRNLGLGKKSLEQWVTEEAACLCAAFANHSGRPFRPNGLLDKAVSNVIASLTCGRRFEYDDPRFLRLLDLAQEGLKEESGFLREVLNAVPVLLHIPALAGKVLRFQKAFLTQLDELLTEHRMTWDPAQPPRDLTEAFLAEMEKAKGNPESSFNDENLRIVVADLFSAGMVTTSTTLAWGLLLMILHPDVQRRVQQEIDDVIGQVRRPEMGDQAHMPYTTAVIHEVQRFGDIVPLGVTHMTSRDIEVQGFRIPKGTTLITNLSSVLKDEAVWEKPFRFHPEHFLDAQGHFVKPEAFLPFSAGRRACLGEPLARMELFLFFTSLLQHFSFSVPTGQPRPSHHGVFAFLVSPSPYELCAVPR

SMILES	AC50
FC(F)(F)c1cc(Sc2ccccc2)nc(-c2ccccn2)n1	11.2 µM (inconclusive)
CNCC/C=C\c1cccnc1	15.8 µM (inconclusive)
Nc1nc(OCc2ccccc2)c2[nH]cnc2n1 [6-O-BENZYLGUANINE]	0.501 µM (inconclusive)

target: T2, Cytochrome P450 1A2 (Homo sapiens, UniProt P05177); settings: not given;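 further: PubChem cytochrome P450 panel assay, CYP1A2 panel member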
T2 sequence (P05177 whole entry): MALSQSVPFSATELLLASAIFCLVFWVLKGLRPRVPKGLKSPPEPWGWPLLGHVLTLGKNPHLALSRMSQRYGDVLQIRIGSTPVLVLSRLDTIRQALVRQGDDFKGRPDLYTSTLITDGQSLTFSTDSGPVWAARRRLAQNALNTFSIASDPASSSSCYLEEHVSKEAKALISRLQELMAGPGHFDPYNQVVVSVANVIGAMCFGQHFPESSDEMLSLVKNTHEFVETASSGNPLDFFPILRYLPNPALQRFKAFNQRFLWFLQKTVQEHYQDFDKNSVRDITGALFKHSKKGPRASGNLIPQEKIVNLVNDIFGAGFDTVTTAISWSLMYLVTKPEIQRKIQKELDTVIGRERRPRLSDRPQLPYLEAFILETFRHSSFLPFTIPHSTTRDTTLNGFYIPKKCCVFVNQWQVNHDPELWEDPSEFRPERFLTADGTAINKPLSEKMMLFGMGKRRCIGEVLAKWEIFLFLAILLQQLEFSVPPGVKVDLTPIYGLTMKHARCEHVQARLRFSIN

SMILES	AC50
CN(C)c1ncc2nc(-c3cccs3)c(=O)n(CCc3ccccc3)c2n1	5.01 µM (inconclusive)
CC1(C)N(O)C(c2ccc(C(=O)O)cc2)=[N+]([O-])C1(C)C	31.6 µM (inconclusive)

target: Cytochrome P450 2C9 (Homo sapiens, UniProt P11712); settings: not given
Sequence (P11712 whole entry): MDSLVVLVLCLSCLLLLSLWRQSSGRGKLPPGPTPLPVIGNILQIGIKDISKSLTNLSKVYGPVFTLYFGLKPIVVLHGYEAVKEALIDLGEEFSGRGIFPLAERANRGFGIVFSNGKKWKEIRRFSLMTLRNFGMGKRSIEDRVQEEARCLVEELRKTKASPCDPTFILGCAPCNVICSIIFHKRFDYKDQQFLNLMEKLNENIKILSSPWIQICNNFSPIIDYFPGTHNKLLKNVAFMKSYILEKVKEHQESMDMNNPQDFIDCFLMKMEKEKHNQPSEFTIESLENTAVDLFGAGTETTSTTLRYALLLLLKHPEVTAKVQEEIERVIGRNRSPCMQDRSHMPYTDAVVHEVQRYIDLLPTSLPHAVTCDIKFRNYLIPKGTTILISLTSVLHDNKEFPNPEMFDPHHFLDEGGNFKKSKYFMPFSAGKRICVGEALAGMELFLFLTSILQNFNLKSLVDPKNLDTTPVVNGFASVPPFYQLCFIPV

SMILES	AC50
Fc1ccccc1CCNCc1cccc(Cl)c1Cl	39.8 µM (inconclusive)
FC(F)(F)c1cc(Sc2ccccc2)nc(-c2ccccn2)n1	14.1 µM (inconclusive)
COc1ccc(-n2nc(C(=O)NCC(=O)Nc3ccccn3)c3ccccc3c2=O)cc1	1.41 µM (inconclusive)
Oc1ccc2ccccc2c1CN(Cc1c(O)ccc2ccccc12)C1CCCCC1	7.94 µM (inconclusive)
NS(=O)(=O)c1ccc(CCNC(=O)C2CCCN2C(=O)OCc2ccccc2)cc1 (stereo unspecified)	15.8 µM (inconclusive)
CNCC/C=C\c1cccnc1	39.8 µM (inconclusive)
Cc1ccc(NC(=O)CCC(=O)NNC(=O)c2ccco2)cc1C	12.6 µM (inconclusive)
CC(=O)Nc1nonc1NC(=O)c1ccc(C(C)(C)C)cc1	3.55 µM (inconclusive)
O=c1[nH][nH]c(=S)c(=O)[nH]1	2.51 µM (inconclusive)
Nc1nc(OCc2ccccc2)c2[nH]cnc2n1 [6-O-BENZYLGUANINE]	39.8 µM (inconclusive)
CC(C)[C@H](CO)Nc1nc(Nc2cccc(Cl)c2)c2ncn(C(C)C)c2n1 [PURVALANOLA]	39.8 µM (inconclusive)
